The values that follow come from article PMC11858624, “Antioxidant and Tyrosinase-Inhibitory Activities and Biological Bioactivities of Flavonoid Derivatives from Quercus mongolica Pollen” (Molecules, 2025).

A short description of experiment [1]: DPPH radical scavenging antioxidant assay. The following applies: for pIC50: DPPH radical scavenging, 10 min incubation, PC = positive control ascorbic acid; for DPPH scavenging activity: at a concentration of 100 µM. As for the experimental part: The antioxidant properties of compounds 1–18 isolated from the pollen of Q. mongolica were assessed through DPPH assay.
The radical scavenging activity of DPPH (Sigma-Aldrich) was hired for the antioxidant activity. For each assay, 10 mM of each compound isolated from the pollen of Q. mongolica (1 µL) was evaluated, followed by 49 µL of MeOH in each well. Subsequently, 50 µL of 0.3 mM DPPH solution (Sigma-Aldrich) was added. The final concentration was tested to 0.1 mM. The mixture was incubated for 10 min, and antioxidant activity was evaluated by measuring UV at 550 nm using a Dynatech MR 500 plate reader. […]

The target of a further experiment is mushroom tyrosinase (Agaricus bisporus, UniProt C7FF04). Put plainly: Tyrosinase inhibition assay (dopachrome formation, absorbance at 490 nm). Type of experiment: biochemical. The conditions noted are these: at a concentration of 100 µM. The method, then: Tyrosinase is a crucial enzyme in melanin synthesis, participating as an oxidase in the initial steps of melanin formation.
Sequence of mushroom tyrosinase (C7FF04 1-392): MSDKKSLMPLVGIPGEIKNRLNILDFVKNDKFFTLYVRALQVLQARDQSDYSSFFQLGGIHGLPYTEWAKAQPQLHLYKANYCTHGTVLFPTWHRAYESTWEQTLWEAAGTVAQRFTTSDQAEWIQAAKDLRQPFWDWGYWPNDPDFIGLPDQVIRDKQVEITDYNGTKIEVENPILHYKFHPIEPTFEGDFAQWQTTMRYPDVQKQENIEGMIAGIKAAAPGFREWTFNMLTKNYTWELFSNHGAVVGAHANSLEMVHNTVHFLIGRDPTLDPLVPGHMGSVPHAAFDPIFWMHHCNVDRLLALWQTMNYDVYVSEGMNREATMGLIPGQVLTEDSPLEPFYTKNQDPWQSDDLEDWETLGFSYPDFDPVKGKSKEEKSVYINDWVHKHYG
Sequence of mushroom tyrosinase (G1K3P4 1-150 partner): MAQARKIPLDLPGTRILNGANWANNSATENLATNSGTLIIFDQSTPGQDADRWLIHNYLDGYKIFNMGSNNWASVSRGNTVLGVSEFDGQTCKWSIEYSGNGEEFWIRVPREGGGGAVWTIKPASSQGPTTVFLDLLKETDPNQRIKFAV
Evaluation of tyrosinase-inhibitory activity was conducted using mushroom tyrosinase (Sigma-Aldrich). For each test, 10 mM of each compound isolated from the pollen of Q. mongolica (1 µL) was evaluated. A 50 µL portion of 1 mM tyrosine (Sigma-Aldrich) dissolved in phosphate-buffered saline was introduced into each well, followed by a 5 min incubation period. Mushroom tyrosinase was prepared to a final concentration of 0.1 U/mL in phosphate-buffered saline, and 49 µL of the prepared enzyme solution was added to the wells, resulting in a compound concentration of 0.1 mM. The mixture underwent a 15 min incubation, after which the production of dopachrome was evaluated by recording the absorbance at 490 nm using a Dynatech MR 500 plate reader (Dynatech, Charlottesville, VA, USA). […] The percentage inhibition for each sample was determined at concentrations of […]. The IC50 value was calculated as the concentration of the compound required to achieve 50% inhibition of tyrosinase activity.

pIC50: −log10 of the molar value. Some results are limits rather than exact numbers.

Usually pIC50 stands for the IC50 on a negative log10 scale, so that one unit is a factor of ten. A lower pIC50 goes with a large IC50. Consider `COc1cc(-c2oc3cc(O)cc(O)c3c(=O)c2O)ccc1O` [Compound 13, isorhamnetin], for which, in experiment [1], the negative logarithm of the IC50 (pIC50) is 4.59 and the DPPH scavenging activity entry was “over 90%”. As usually defined, the inhibition is the drop in the measured response relative to a control, in per cent. A lower inhibition goes with little suppression. `O=c1c(O)c(-c2ccc(O)cc2)oc2cc(O)cc(O)c12` [Compound 12, kaempferol]: on mushroom tyrosinase, the inhibition at 100 µM was > 70%. For the same compound, in experiment [1], the pIC50 was 4.37 and the DPPH scavenging activity result is “over 90%”. Regarding `COc1c(O)cc(O)c2c(=O)c(OC3OC(CO)C(O)C(O)C3O)c(-c3ccc(O)cc3)oc12` (stereo not shown) [Compound 10, 8-methoxykaempferol 3-glucoside], the pIC50 in experiment [1] was < 4.00. `O=c1c(OC2OC(CO)C(O)C(O)C2OC2OC(CO)C(O)C(O)C2O)c(-c2ccc(O)c(O)c2)oc2cc(O)cc(O)c12` (stereo not shown) [Compound 2, quercetin 3-sophoroside]: in experiment [1], the negative logarithm of the IC50 (pIC50) was 4.46 and the DPPH scavenging activity result is “over 90%”.

Take `COc1cc(-c2oc3cc(O)cc(O)c3c(=O)c2OC2OC(CO)C(O)C(O)C2O)ccc1O` (stereo not shown) [Compound 9, isorhamnetin 3-glucoside]: the negative-log IC50 (pIC50) in experiment [1] was < 4.00.

For the compound `COc1cc(-c2oc3c(OC)c(O)cc(O)c3c(=O)c2OC2OC(CO)C(O)C(O)C2O)ccc1O` (stereo not shown) [Compound 11, limocitrin 3-glucoside], the pIC50 in experiment [1] is < 4.00. With `O=c1cc(-c2ccc(O)c(O)c2)oc2cc(O)cc(O)c12` [Compound 16, luteolin], the inhibition at 100 µM against mushroom tyrosinase is > 50%. Besides, in experiment [1], the pIC50 was 5.01 and the DPPH scavenging activity entry was “over 90%”. For the compound `O=c1c(OC2OC(CO)C(O)C(O)C2OC2OCC(O)C(O)C2O)c(-c2ccc(O)c(O)c2)oc2cc(O)cc(O)c12` (stereo not shown) [Compound 5, quercetin 3-sambubioside], in experiment [1], the pIC50 was 4.74 and the DPPH scavenging activity entry is “over 90%”. For the compound `COc1ccc(-c2coc3cc4c(c(O)c3c2=O)C=CC(C)(C)O4)cc1` [Compound 18, 4′-methylalpinumisoflavone], the pIC50 in experiment [1] was < 4.00. On the same count and under the same terms, then `COc1cc(-c2oc3cc(O)cc(O)c3c(=O)c2OC2OC(COC3OCC(O)C(O)C3O)C(O)C(O)C2O)ccc1O` [Compound 6, Isorhamnetin 3-O-β-D-xylopyranosyl (1→6)-β-D-glucopyranoside], with < 4.00.

As to `O=c1c(OC2OC(CO)C(O)C(O)C2OC2OCC(O)C(O)C2O)c(-c2ccc(O)cc2)oc2cc(O)cc(O)c12` (stereo not shown) [Compound 4, leucoside], the negative-log IC50 (pIC50) in experiment [1] was < 4.00.

For the compound `O=c1c(O[C@@H]2O[C@H](CO)[C@@H](O)[C@H](O)[C@H]2O)c(-c2ccc(O)cc2)oc2cc(O)cc(O)c12` [Compound 7, astragalin], the pIC50 in experiment [1] is < 4.00. The compound `O=C1O[C@H]([C@@H](O)CO)C(O)=C1O` [ascorbic acid, reference compound] gave a pIC50 in experiment [1] of 4.55. `COc1cc(-c2oc3cc(O)cc(O)c3c(=O)c2OC2OC(CO)C(O)C(O)C2OC2OC(C)C(O)C(O)C2O)ccc1O` (stereo not shown) [Compound 3, calendoflavoside]: the pIC50 in experiment [1] was < 4.00. In the case of `O=C1C[C@@H](c2ccc(O)cc2)Oc2cc(O)cc(O)c21` [Compound 17, naringenin], in experiment [1], the pIC50 is < 4.00. For the compound `COc1cc(-c2oc3c(OC)c(O)cc(O)c3c(=O)c2O)ccc1O` [Compound 14, limocitrin], in experiment [1], the pIC50 was 4.28 and the DPPH scavenging activity entry is given as “over 90%”. As for `O=c1c(O[C@@H]2O[C@H](CO)[C@@H](O)[C@H](O)[C@H]2O)c(-c2ccc(O)c(O)c2)oc2cc(O)cc(O)c12` [Compound 8, isoquercetin], in experiment [1], the pIC50 was 4.55 and the DPPH scavenging activity entry is listed as “over 90%”. Regarding `COc1cc(-c2oc3cc(O)cc(O)c3c(=O)c2OC2OC(COC3OCC(O)C(O)C3O)C(O)C(O)C2OC(C)=O)ccc1O` (stereo not shown) [Compound 1, mongolinodoside A], in experiment [1], the negative-log IC50 (pIC50) is < 4.00. With `O=c1cc(-c2ccc(O)cc2)oc2cc(O)cc(O)c12` [Compound 15, apigenin], the negative-log IC50 (pIC50) in experiment [1] was < 4.00.
